The values that follow come from patent publication US20220317111A1, “BIOASSAY METHOD” (KASHIV BIOSCIENCES, LLC, priority 2021, published 2022).

The target of test [1] is T1, Human bradykinin B1 receptor cell line (Homo sapiens, UniProt P46663).
T1 sequence (P46663 1-353): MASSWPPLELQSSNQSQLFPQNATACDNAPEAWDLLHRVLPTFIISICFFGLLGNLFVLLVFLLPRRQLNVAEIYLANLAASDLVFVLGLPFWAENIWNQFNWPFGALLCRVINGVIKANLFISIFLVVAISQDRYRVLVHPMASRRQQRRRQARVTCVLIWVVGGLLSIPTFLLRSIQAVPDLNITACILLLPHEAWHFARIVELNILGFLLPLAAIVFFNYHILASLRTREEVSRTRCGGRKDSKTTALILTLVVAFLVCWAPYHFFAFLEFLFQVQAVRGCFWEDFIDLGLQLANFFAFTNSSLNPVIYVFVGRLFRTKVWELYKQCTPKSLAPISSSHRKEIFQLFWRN
Nature of the test: Bradykinin B1 receptor antagonistic activity by intracellular calcium assay (Fluo-4, LDBK agonist). The test is classed as cell-based. Particulars: human B1 receptor cells, Fluo-4 calcium assay, agonist LDBK at EC80, with washing step. How it is done:
(§1) Human bradykinin B1 receptor cell line (Product #ES-091-C), Human bradykinin B2 receptor aequorin cell line (Product #ES-090-A), Fluo-4 calcium assay kits (Molecular Probes).
(§2) Agonist for B1 receptor cell line is Lys-[Des-Arg9]-Bradykinin (LDBK) and antagonist is R715. Agonist for B2 receptor cell line is BK (bradykinin) and antagonist is HOE140. All the agonist and antagonist were procured from TOCRIS. Dye loading solution was prepared by adding 10 mL of assay buffer and 100 μL of the probenecid stock solution (provided in the Kit) to one bottle of component A (dye concentrate). 0.4% Triton X-100 (4X) was used as positive control (PC) and was prepared by adding 38 uL of Triton X-100 in 10 mL of working assay buffer (WAB).
(§3) Human bradykinin B1 receptor cell line (B1) and human bradykinin B2 receptor aequorin cell line (B2) was procured from PerkinElmer, Waltham, Mass. B1 cells were cultured and maintained in Ham's F-12 medium (Gibco) supplemented with 10% fetal bovine serum (FBS) (Gibco) and 0.4 mg/ml Geneticin (Gibco) in a humidified incubator at 37° C. with 5% CO2. B2 cells were cultured and maintained in Ham's F-12 medium (Gibco) supplemented with 10% fetal bovine serum (FBS) (Gibco), 0.4 mg/ml Geneticin (Gibco) and 5 μg/ml Puromycin (Gibco) in a humidified incubator at 37° C. with 5% CO2. All the test compounds were weighed and dissolved in DMSO and a stock of 20 mM was prepared and stored at −20° C.
(§4) Bradykinin receptor antagonist screening assay was performed using Fluo-4 calcium assay kits by following the manufacturer's instruction. Briefly, approximately 30,000 of human either B1 or B2 cells were seeded in each well of a 96 black well plate. After 24 h, the growth media was removed and washed with 200 μL of assay buffer provided in the Fluo-4 calcium assay kits. Thereafter, 100 uL of Flu-4 dye-loading solution was added in each well of 96 well plate and incubated it at 37° C. for about 30 min. After about 30 minutes of incubation at room temperature, dye loading solution was removed and washed with 200 μL of WAB (mentioned in materials). Post washing, into 100 uL of WAB, 50 uL of WAB or 50 uL of cell line receptor specific antagonist (mentioned in materials) or test compound dilutions were added in 96 well plate. The plates were incubated for 20 min at room temperature with shaking at 300 rpm. At the end of the incubation time, the plates were inserted into the CLARIOstar microplate reader and % gain was adjusted. Thereafter, the plates were read at Ex/Em=494/516 nm for baseline RFU (Range 1). Thereafter, the microplate reader was paused at 11th cycle and 50 uL of 4× (EC80) cell line specific agonist (mentioned in materials) or PC dilution prepared in WAB was added and manually the plates were shaked for 5 sec. Again, the plates were read at Ex/Em=494/516 nm (Range 2).
(§5) Delta RFU was calculated using the formula:
(§6) Delta RFU=Range 2 avg RFU−Range 1 avg RFU
(§7) Based on the data the IC50 or Percent Inhibition of all the compounds was calculated.
(§8) Note: The above assay was performed using plate (flying) mode function of CLARIOstar.
For orientation: A change in cytosolic calcium serves as a functional read-out for many receptors and channels.

Test [2] concerns the target T2, Human bradykinin B2 receptor aequorin cell line (Homo sapiens, UniProt P30411).
T2 sequence (P30411 1-391): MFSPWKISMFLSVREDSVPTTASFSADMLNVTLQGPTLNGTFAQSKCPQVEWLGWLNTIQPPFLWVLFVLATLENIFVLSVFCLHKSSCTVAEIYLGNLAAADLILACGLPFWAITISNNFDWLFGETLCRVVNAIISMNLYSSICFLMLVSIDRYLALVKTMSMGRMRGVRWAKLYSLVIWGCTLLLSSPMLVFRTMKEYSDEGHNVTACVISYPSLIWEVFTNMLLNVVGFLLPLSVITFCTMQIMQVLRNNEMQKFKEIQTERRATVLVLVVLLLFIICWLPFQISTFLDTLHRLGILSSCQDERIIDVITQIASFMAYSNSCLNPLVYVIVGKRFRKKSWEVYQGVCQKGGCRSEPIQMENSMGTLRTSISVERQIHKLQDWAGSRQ
In words: Bradykinin B2 receptor antagonistic activity by intracellular calcium assay (Fluo-4, BK agonist). Format: cell-based. As to conditions: for IC50: human B2 receptor cells, Fluo-4 calcium assay, agonist BK at EC80, with washing step. How it is done: as §1, §2, §3, §4, §5, §6, §7, §8

With `Nc1ccc(/N=N/c2ccc(O)cc2)c(N)n1` [Compound III], the IC50 – broadly, the point on the concentration scale where inhibition reaches its midpoint – turned out to be 27.1 µM in test [1] and 21.3 µM in test [2].
In the same order, the values of `Nc1nc(N)c(/N=N/c2ccccc2)cc1O` [Compound II] are 12.5 µM and 13.2 µM.
In the same order, the values of `Nc1ccc(/N=N/c2ccccc2O)c(N)n1` [Compound IV] are 8.4 µM and 10.9 µM.
The corresponding values for `Nc1ccc(/N=N/c2ccccc2)c(N)n1` [Compound I] are 32.4 µM and 31.9 µM.
Take `Nc1nc(N)c(/N=N/c2ccc(O)cc2)cc1O` [Compound V]: the IC50 in test [1] is 29.5 µM; in test [2] it was > 100 µM.
As for HOE-140 [reference compound], in test [2], the “IC50 without washing steps relative to IC50 with washing step” value is listed as “approximately 15 fold”.
